The target of test [1] is T1, PfTopoVIB (topoisomerase VIB subunit of PfTopoVI) (Plasmodium falciparum, UniProt Q8ID53).
T1 construct: gene PF3D7_1365600; full-length Myc-tagged PfTopoVIB co-expressed with Flag-tagged PfTopoVIA in S. cerevisiae, cell-free extract; with PfTopoVIA (PF3D7_1217100.1)
T1 sequence (Q8ID53 1-561): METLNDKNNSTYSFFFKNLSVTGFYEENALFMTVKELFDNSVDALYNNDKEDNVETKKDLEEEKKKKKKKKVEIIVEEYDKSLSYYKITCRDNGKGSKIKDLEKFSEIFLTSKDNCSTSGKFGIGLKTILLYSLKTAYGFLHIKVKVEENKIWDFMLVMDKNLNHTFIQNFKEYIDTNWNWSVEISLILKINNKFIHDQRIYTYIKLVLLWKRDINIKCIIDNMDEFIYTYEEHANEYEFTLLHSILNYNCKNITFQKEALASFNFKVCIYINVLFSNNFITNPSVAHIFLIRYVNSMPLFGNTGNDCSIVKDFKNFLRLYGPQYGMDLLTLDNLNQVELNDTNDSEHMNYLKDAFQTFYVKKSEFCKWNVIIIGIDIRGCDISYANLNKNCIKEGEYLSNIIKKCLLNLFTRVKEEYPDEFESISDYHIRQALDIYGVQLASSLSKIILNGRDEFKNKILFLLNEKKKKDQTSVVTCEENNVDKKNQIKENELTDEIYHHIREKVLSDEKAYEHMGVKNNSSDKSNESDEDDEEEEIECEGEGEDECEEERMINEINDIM
T1 sequence (Q8I5N7 1-327 partner): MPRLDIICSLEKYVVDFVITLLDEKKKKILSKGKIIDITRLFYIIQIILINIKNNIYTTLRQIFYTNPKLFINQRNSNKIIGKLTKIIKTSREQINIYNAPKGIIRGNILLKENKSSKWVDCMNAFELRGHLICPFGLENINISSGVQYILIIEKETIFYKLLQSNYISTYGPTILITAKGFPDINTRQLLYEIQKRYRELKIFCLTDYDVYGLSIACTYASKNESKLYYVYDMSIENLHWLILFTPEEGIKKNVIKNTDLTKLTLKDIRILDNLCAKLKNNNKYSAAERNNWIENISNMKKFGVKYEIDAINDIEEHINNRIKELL
As to the kind of experiment: kDNA decatenation gel assay with yeast cell extract expressing PfTopoVIB-VIA. In kind it is biochemical.

Test [2] concerns the target T2, PfTopoVIB (measured as PfTopoVIB-VIA complex) (Plasmodium falciparum, UniProt Q8I5N7+Q8ID53).
T2 construct: gene PF3D7_1365600; full-length Myc-tagged PfTopoVIB co-expressed with Flag-tagged PfTopoVIA in S. cerevisiae, cell-free extract; with PfTopoVIA (PF3D7_1217100.1)
Described as above. In kind it is biochemical.

In turn, `C[C@@H]1C[C@H]2O[C@@H]2/C=C\C=C\C(=O)Cc2c(Cl)c(O)cc(O)c2C(=O)O1` [radicicol] gave an IC50 in test [1] of around 80 µM. As to `COc1cc([C@@H]2c3cc4c(cc3[C@@H](O[C@@H]3O[C@@H]5CO[C@@H](C)O[C@H]5[C@H](O)[C@H]3O)[C@H]3COC(=O)[C@H]23)OCO4)cc(OC)c1O` [etoposide], the inhibition at 10 µM in test [2] is above 80%.

Usually IC50 stands for the concentration needed to halve the response being measured. Read a high IC50 as a need for much substance. As a reminder, the inhibition is the share of the control response that was lost under treatment. Read a low inhibition as a weak effect.

The values above are taken from publication PMC4863635, “Radicicol-Mediated Inhibition of Topoisomerase VIB-VIA Activity of the Human Malaria Parasite Plasmodium falciparum” (mSphere, 2016).
